The source of these data is patent US11440908B2, “Crystalline forms of dasatinib” (Johnson Matthey Public Limited Company, priority 2018, dated 2022).

A value given as a limit tells only on which side of the number the result lay.

Assay type in all cases: physicochemical
Data set [1] is described as follows: Retention of solid form after drying under vacuum. The note with it: dried under vacuum at about 45° C. overnight (about 18-20 h). As to the method:
(§1) About 120 mg of dasatinib is dispensed in about 1 mL of ethyl formate and stirred at temperatures of about 15° C. or about 45° C. for about 24 h. The slurries that are obtained at either of two temperatures are filtered, to yield Form I of ethyl formate solvate of dasatinib.

A short description of data set [2]: Retention of solid form under high humidity conditions. The following applies: about ≥95% relative humidity (RH) overnight (about 18-20 h), dried material. As to the method: as §1
Data set [3] is described as follows: Moisture uptake on exposure to 0-95% RH. The following applies: exposed to 0-95% RH.
A short description of data set [4]: Storage stability at controlled temperature/relative humidity.

For `Cc1nc(Nc2ncc(C(=O)Nc3c(C)cccc3Cl)s2)cc(N2CCN(CCO)CC2)n1` [dasatinib], the “solid form after drying under vacuum” value in data set [1] is listed as “retains its form”. The “solid form after exposure to high humidity” value in data set [2] is recorded as “retains its form”. This compound also returned a moisture uptake in data set [3] below 1%. Moreover, the stability on storage result in data set [4] (25° C./97% RH) and in data set [4] (40° C./75% RH) was “stable up to 5 months” each time.
